Experiments:
Assay in all cases: GR value, 72 h; higher = faster growth (1 = untreated, <0 = killing);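 also: breast cancer and non-malignant breast epithelial lines, nine half-log doses, viable cells counted by Hoechst and LIVE/DEAD dye imaging versus time-zero plates and DMSO controls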
[1] = compound: C1=CC(=CC(=C1)N2C(=O)C=CC3=CN=C4C=CC(=CC4=C32)C5=CN=C(C=C5)N)C(F)(F)F [Torin2]
[2] = compound: C=CCn1c(=O)c2cnc(Nc3ccc(N4CCN(C)CC4)cc3)nc2n1-c1cccc(C(C)(C)O)n1 [AZD1775]
[3] = compound: CC(C)Nc1cc(-c2c[nH]c(C(=O)N[C@H](CO)c3cccc(Cl)c3)c2)c(Cl)cn1 [BVD523]
[4] = compound: CCC(=O)Nc1ccc(C(=O)Nc2ccc(Nc3ncc4c(n3)N(C)c3ccc(C)cc3C(=O)N4C)cc2)cc1 [FMF-03-145-1]
[5] = compound: CN(C)CC[C@H](CSc1ccccc1)Nc1ccc(S(=O)(=O)NC(=O)c2ccc(N3CCN(Cc4ccccc4-c4ccc(Cl)cc4)CC3)cc2)cc1[N+](=O)[O-] [ABT-737]
[6] = compound: COc1cc2c(Oc3ccc4[nH]c(C)cc4c3F)ncnc2cc1OCCCN1CCCC1 [Cediranib/AZD2171]
[7] = compound: CS(=O)(=O)N1CCN(Cc2cc3nc(-c4cccc5[nH]ncc45)nc(N4CCOCC4)c3s2)CC1 [Pictilisib/GDC0941]
[8] = compound: Cc1nc(NC(=O)N2CCC[C@H]2C(N)=O)sc1-c1ccnc(C(C)(C)C(F)(F)F)c1 [Alpelisib/BYL719]
[9] = compound: NC(=O)Nc1cc(-c2cccc(F)c2)sc1C(=O)N[C@H]1CCCNC1 [AZD7762]
[10] = compound: NC1(C(=O)N[C@@H](CCO)c2ccc(Cl)cc2)CCN(c2nc[nH]c3nccc2-3)CC1 [AZD5363]
[11] = compound: O=C(CCCCCCC(=O)Nc1ccccc1)NO [Vorinostat]
[12] = compound: O=C(c1cc(Cc2n[nH]c(=O)c3ccccc23)ccc1F)N1CCN(C(=O)C2CC2)CC1 [Olaparib/AZD2281]

Cell Line AU565 has a GR value ([1]; 0.0001 µM) of 1.06 GR, a GR value ([1]; 0.0003162 µM) of 1.02 GR and a GR value ([1]; 0.001 µM) of 0.884 GR. For the same cell line, the GR value ([1]; 0.003162 µM) was 0.698 GR, the GR value ([1]; 0.01 µM) was 0.222 GR and the GR value ([1]; 0.03162 µM) was -0.0323 GR. It also gave a GR value ([1]; 0.1 µM) of -0.152 GR, a GR value ([1]; 0.3162 µM) of -0.239 GR and a GR value ([1]; 1 µM) of -0.395 GR. It also gave a GR value ([2]; 0.001 µM) of 0.879 GR, a GR value ([2]; 0.003162 µM) of 0.913 GR and a GR value ([2]; 0.01 µM) of 0.779 GR. The GR value ([2]; 0.03162 µM) was 0.585 GR, the GR value ([2]; 0.1 µM) was 0.612 GR and the GR value ([2]; 0.3162 µM) was 0.521 GR. For the same cell line, the GR value ([2]; 1 µM) was 0.288 GR, the GR value ([2]; 3.162 µM) was 0.207 GR and the GR value ([2]; 10 µM) was -0.514 GR. It also gave a GR value ([3]; 0.001 µM) of 1.17 GR, a GR value ([3]; 0.003162 µM) of 0.925 GR and a GR value ([3]; 0.01 µM) of 1.04 GR. The GR value ([3]; 0.03162 µM) was 0.941 GR, the GR value ([3]; 0.1 µM) was 1.06 GR and the GR value ([3]; 0.3162 µM) was 0.956 GR. The GR value ([3]; 1 µM) was 0.985 GR, the GR value ([3]; 3.162 µM) was 0.761 GR and the GR value ([3]; 10 µM) was 0.525 GR. The GR value ([4]; 0.0001 µM) was 0.967 GR, the GR value ([4]; 0.0003162 µM) was 0.975 GR and the GR value ([4]; 0.001 µM) was 0.99 GR. The GR value ([4]; 0.003162 µM) was 0.971 GR, the GR value ([4]; 0.01 µM) was -0.215 GR and the GR value ([4]; 0.03162 µM) was -0.0803 GR. For the same cell line, the GR value ([4]; 0.1 µM) was -0.163 GR, the GR value ([5]; 0.001 µM) was 0.926 GR and the GR value ([5]; 0.003162 µM) was 1.05 GR. The GR value ([5]; 0.01 µM) was 1.03 GR, the GR value ([5]; 0.03162 µM) was 1.04 GR and the GR value ([5]; 0.1 µM) was 1.04 GR. It also gave a GR value ([5]; 0.3162 µM) of 1.02 GR, a GR value ([5]; 1 µM) of 0.957 GR and a GR value ([5]; 3.162 µM) of 0.86 GR. It also gave a GR value ([5]; 10 µM) of 0.279 GR, a GR value ([6]; 0.001 µM) of 1.04 GR and a GR value ([6]; 0.003162 µM) of 0.989 GR. For the same cell line, the GR value ([6]; 0.01 µM) was 1.07 GR, the GR value ([6]; 0.03162 µM) was 1.07 GR and the GR value ([6]; 0.1 µM) was 1.06 GR. For the same cell line, the GR value ([6]; 0.3162 µM) was 1.22 GR, the GR value ([6]; 1 µM) was 1.2 GR and the GR value ([6]; 3.162 µM) was 1.08 GR. It also gave a GR value ([6]; 10 µM) of 0.941 GR, a GR value ([7]; 0.001 µM) of 0.964 GR and a GR value ([7]; 0.003162 µM) of 0.961 GR. It also gave a GR value ([7]; 0.01 µM) of 0.898 GR, a GR value ([7]; 0.03162 µM) of 0.642 GR and a GR value ([7]; 0.1 µM) of 0.37 GR. It also gave a GR value ([7]; 0.3162 µM) of 0.101 GR, a GR value ([7]; 1 µM) of -0.096 GR and a GR value ([7]; 3.162 µM) of -0.251 GR. For the same cell line, the GR value ([7]; 10 µM) was -0.391 GR, the GR value ([8]; 0.001 µM) was 0.962 GR and the GR value ([8]; 0.003162 µM) was 1.06 GR. For the same cell line, the GR value ([8]; 0.01 µM) was 0.931 GR, the GR value ([8]; 0.03162 µM) was 0.762 GR and the GR value ([8]; 0.1 µM) was 0.621 GR. For the same cell line, the GR value ([8]; 0.3162 µM) was 0.504 GR, the GR value ([8]; 1 µM) was 0.215 GR and the GR value ([8]; 3.162 µM) was -0.0201 GR. For the same cell line, the GR value ([8]; 10 µM) was -0.464 GR, the GR value ([9]; 0.001 µM) was 1.01 GR and the GR value ([9]; 0.003162 µM) was 1.01 GR. It also gave a GR value ([9]; 0.01 µM) of 1.08 GR, a GR value ([9]; 0.03162 µM) of 1.03 GR and a GR value ([9]; 0.1 µM) of 0.976 GR. It also gave a GR value ([9]; 0.3162 µM) of 0.756 GR, a GR value ([9]; 1 µM) of 0.41 GR and a GR value ([9]; 3.162 µM) of -0.179 GR. For the same cell line, the GR value ([9]; 10 µM) was -0.57 GR, the GR value ([10]; 0.001 µM) was 1.15 GR and the GR value ([10]; 0.003162 µM) was 0.991 GR. It also gave a GR value ([10]; 0.01 µM) of 0.884 GR, a GR value ([10]; 0.03162 µM) of 0.793 GR and a GR value ([10]; 0.1 µM) of 0.786 GR. The GR value ([10]; 0.3162 µM) was 0.717 GR, the GR value ([10]; 1 µM) was 0.655 GR and the GR value ([10]; 3.162 µM) was 0.682 GR. For the same cell line, the GR value ([10]; 10 µM) was 0.399 GR, the GR value ([11]; 0.001 µM) was 0.865 GR and the GR value ([11]; 0.003162 µM) was 0.936 GR. For the same cell line, the GR value ([11]; 0.01 µM) was 1.02 GR, the GR value ([11]; 0.03162 µM) was 0.999 GR and the GR value ([11]; 0.1 µM) was 1.06 GR. The GR value ([11]; 0.3162 µM) was 0.941 GR, the GR value ([11]; 1 µM) was 0.551 GR and the GR value ([11]; 3.162 µM) was -0.345 GR. For the same cell line, the GR value ([11]; 10 µM) was -0.448 GR, the GR value ([12]; 0.001 µM) was 0.901 GR and the GR value ([12]; 0.003162 µM) was 1 GR. For the same cell line, the GR value ([12]; 0.01 µM) was 1.02 GR, the GR value ([12]; 0.03162 µM) was 1.04 GR and the GR value ([12]; 0.1 µM) was 1 GR. For the same cell line, the GR value ([12]; 0.3162 µM) was 0.907 GR, the GR value ([12]; 1 µM) was 0.942 GR and the GR value ([12]; 3.162 µM) was 0.979 GR. It also gave a GR value ([12]; 10 µM) of 0.577 GR.

From the supplement of paper PMC9663587
